Key:
[1] = tested on: rat aortic smooth muscle cells (A10); test: A10 growth inhibition by PTX derivatives, Alamar Blue assay; type: cell-based; settings: free compound, 2 hr incubation, cell viability 7 days post treatment vs untreated cells
Method: Cells seeded at 10% confluency on 96-well plates were incubated with the compounds at indicated PTX molar equivalent doses for 2 hr, and the cell viability was compared to that of untreated cells 7 days post treatment using the Alamar Blue assay.

[2] = Model experiments estimating stability of ester bonds (half-hydrolysis in phosphate buffer); type: physicochemical; settings: pH=7 phosphate buffer at 21-22° C.
Text: Based on the results of the model experiments, paclitaxel 2′-esters with N-acylglycines and acyloxyacetic acids containing highly hydrophobic residues (e.g., derived from cholesterol or tocopherol) are the most suitable for encapsulation in sustained release nanoparticle formulations as rapidly cleavable PTX prodrugs. In the context of in-stent restenosis therapy, these unique designs more effectively confine the drug formulated in magnetically targeted MNP to the stented area. Importantly, the by-products of the prodrug degradation deriving from the anchor and the linking group are all biocompatible endogenous small molecules, rapidly eliminated via natural metabolic pathways.

[3] = In vitro release kinetics and recovery from MNP, external sink method; type: physicochemical; settings: for total recovered (release medium samples and upon experiment termination): MNP diluted 1:500 in phosphate buffer with 2% bovine serum albumin, heptane/1-octanol acceptor, 5-day experiment; for initial drug payload still present in the MNP: at the end of the 5-day experiment, extraction in 1-octanol
Method: The release of 2′-PTX-glycol-suc-Chol from MNP was measured in comparison with PTX using the external sink method. A 1:1 mixture of heptane and 1-octanol was used as the acceptor medium to ensure perfect sink conditions. MNP were diluted 1:500 in phosphate buffer containing 2% bovine serum albumin, included to more closely model in vivo conditions. Released drug was assayed spectrophotometrically in the acceptor phase at predetermined timepoints (λ=230 nm). After five days the amount of the compounds remaining in MNP was measured following extraction in 1-octanol.

[4] = Drug release from typical PTX MNP under sink conditions; type: physicochemical; settings: MNP comprising PTX, iron oxides and polylactide carrier
Text: For example in a typical MNP comprising PTX, iron oxides and a polylactide carrier, about 50% and 80% of the drug is released under sink conditions after 4 hr and 24 hr, respectively. This may be too fast for optimal restenosis inhibition, given that the period of vulnerability to restenotic activity may extend for several weeks. It is believed that the large surface area to volume ratio and small linear dimensions of nanoparticles, combined with the relatively low molecular weight of PTX and limited affinity toward the carrier particles, result in the excessively rapid PTX escape from the nanoparticles. To deal with this problem, it has been found necessary to greatly increase the affinity of the PTX for the polymeric carrier. This has now been done by binding PTX to a structure (hereinafter “anchor”) that limits the diffusivity within the MNP compared with that of unbound PTX itself. The resulting PTX-anchor conjugate is a PTX prodrug. Prodrugs according to the invention are converted to the corresponding drugs (e.g., PTX) in vivo in a patient, which may be a human or other animal. The prodrug can be incorporated in the MNP with a high entrapment yield and can provide protracted drug release at the site of arterial injury.

[5] = tested on: A10 cells; test: Magnetically guided A10 growth inhibition by MNP loaded with PTX derivatives; type: cell-based, rat; settings: compounds formulated in MNP, 5 min exposure, high gradient magnetic field (32.5 T/m), viability 7 days post treatment
Method: Polylactide-based MNP were formulated with inclusion of nanocrystalline magnetite by a modification of the emulsification-solvent evaporation method. Ferric chloride hexahydrate and ferrous chloride tetrahydrate (170 and 62.5 mg, respectively) were dissolved in ethanol (2.5 mL) and mixed with freshly prepared aqueous sodium hydroxide (0.5 N, 5 mL). The precipitate was heated for 1 min at 90° C., cooled on ice, and separated on a magnet. The obtained magnetite was stirred with a solution of oleic acid in ethanol (150 mg in 2 mL) at 90° C. for 5 min. Free oleic acid was separated by deionized water. Magnetite was washed with ethanol, dispersed in 8 mL of chloroform, and used to dissolve 100 mg of poly(D,L-lactide) (molecular weight 75,000-120,000 Da) and 15 mg PTX or a PTX prodrug. The organic dispersion was emulsified by sonication on ice in 10 mL of an aqueous solution of bovine serum albumin (1% w/v), and the organic solvent was evaporated under reduced pressure. MNP were washed twice by magnetic decantation, resuspended in 6 mL of aqueous trehalose (10% w/v), passed through a sterile 5 μm filter unit and lyophilized. […]
Cells were incubated with indicated doses of the compounds formulated in MNP for 5 min with or without (mag+ or mag−) the presence of a high gradient magnetic field (average field gradient of 32.5 T/m). Cell viability was determined as above 7 days post treatment.

[6] = tested on: A10 cells; test: A10 inhibition by MNP after 4-day incubation with fetal bovine serum at 37° C. (recovered activity); type: cell-based, rat; settings: MNP incubated 4 days in FBS at 37° C. vs fresh MNP, magnetic conditions, 5-20 ng drug per well
Method: MNP loaded with 2′-PTX-glycol-suc-Chol or PTX at 1 mg/mL were diluted 1:500 in fetal bovine serum (FBS), placed on a tube rotator and incubated for 4 days at 37° C. modeling the exposure of stent-targeted MNP to the in vivo environment. MNP suspensions were then applied to A10 cells for 5 min in the presence of a high gradient magnetic field (See Example 9) in a dose range equivalent to 5-20 ng drug per well based on their initial drug loading. Their growth inhibitory effect was compared with that of fresh MNP applied in equivalent dilutions under magnetic conditions, and the ratio between their respective inhibition efficiencies was plotted as Recovered activity, % of control (See FIG. 4).

Q: For `CC(=O)OC1C(=O)C2(C)C(O)CC3OCC3(OC(C)=O)C2C(OC(=O)c2ccccc2)C2(O)CC(OC(=O)C(OC(=O)CCC(=O)OC3CCC4(C)C(=CCC5C4CCC4(C)C(C(C)CCCC(C)C)CCC54)C3)C(NC(=O)c3ccccc3)c3ccccc3)C(C)=C1C2(C)C` (stereo not shown) [2′-PTX-suc-Chol], which “A10 cell growth inhibition” value [1] is on record?
A: no growth inhibition

Q: For `CCOC(=O)COC(C)=O` [ethyl ester of acetoxyacetic acid], which time of half-hydrolysis [2] is on record?
A: 9 days

Q: Which “total recovered (release medium samples and upon experiment termination)” value [3] does the source give for `CC(=O)O[C@H]1C(=O)[C@@]2(C)[C@H]([C@H](OC(=O)c3ccccc3)[C@]3(O)C[C@H](OC(=O)[C@H](O)[C@@H](NC(=O)c4ccccc4)c4ccccc4)C(C)=C1C3(C)C)[C@]1(OC(C)=O)CO[C@@H]1C[C@@H]2O` [PTX, Paclitaxel] here?
A: 55%

Q: And the “initial drug payload still present in the MNP” value [3]?
A: none

Q: What about the drug released ([4]; after 4 hr) of the same compound?
A: about 50%

Q: And the drug released ([4]; after 24 hr)?
A: ~80%

Q: What does the source list for `CC(=O)O[C@H]1C(=O)[C@@]2(C)[C@H]([C@H](OC(=O)c3ccccc3)[C@]3(O)CC(OC(=O)[C@H](OC(=O)COC(=O)CCC(=O)O[C@H]4CC[C@@]5(C)C(=CCC6C7CCC(C(C)CCCC(C)C)[C@@]7(C)CCC65)C4)[C@@H](NC(=O)c4ccccc4)c4ccccc4)C(C)=C1C3(C)C)[C@]1(OC(C)=O)CO[C@@H]1C[C@@H]2O` (stereo partly shown) [2′-PTX-glycol-suc-Chol, PTX 2′-(3-cholesteryloxycarbonyl)propionyloxyacetate]?
A: A10 cell growth inhibition, magnetic field (mag+) [5]: comparable to that of MNP loaded with PTX; Recovered activity, % of control (fraction of initial activity retained) [6]: retained a larger fraction of its initial activity compared to PTX; total recovered (release medium samples and upon experiment termination) [3]: 81%; initial drug payload still present in the MNP [3]: 30%; release kinetics from MNP vs. PTX ([3]; external sink method, 5 days): significantly slower release kinetics; A10 cell growth inhibition [1]: dose-dependent A10 cell growth inhibition

Q: Which time of half-hydrolysis [2] does the source give for `CCOC(=O)CNC(C)=O` [ethyl ester of N-acetylglycine, ethyl esters of N-acetylglycine] here?
A: 27 days

Q: For `CC(=O)O[C@H]1C(=O)[C@@]2(C)[C@H]([C@H](OC(=O)c3ccccc3)[C@]3(O)CC(OC(=O)[C@H](OC(=O)CNC(=O)CCC(=O)O[C@H]4CC[C@@]5(C)C(=CCC6C7CCC(C(C)CCCC(C)C)[C@@]7(C)CCC65)C4)[C@@H](NC(=O)c4ccccc4)c4ccccc4)C(C)=C1C3(C)C)[C@]1(OC(C)=O)CO[C@@H]1C[C@@H]2O` (stereo partly shown) [2′-PTX-glycine-suc-Chol, PTX 2′-[N-(3-cholesteryloxycarbonyl)propionyl]glycinate], which “A10 cell growth inhibition, magnetic field (mag+)” value [5] is on record?
A: comparable to that of MNP loaded with PTX

Q: What about the “A10 cell growth inhibition” value [1] of the same compound?
A: dose-dependent A10 cell growth inhibition

Q: For `CCOC(C)=O` [ethyl acetate], which time of half-hydrolysis [2] is on record?
A: approximately 200 days

Reference: US9233163B2, “Hydrolytically releasable prodrugs for sustained release nanoparticle formulations” (The Children's Hospital of Philadelphia, priority 2010, dated 2016)
